Data published in patent US5189055A, “Phenylpyrrolic compounds used as drugs, their preparation and application” (Centre National de la Recherche Scientifique (CNRS), priority 1988, dated 1993).

Legend:
Vero cells = test: Cytotoxicity / cytostasis test on the Vero line, % inhibition of proliferation (crystal violet); format: cell-based, monkey; details: 72 hours
Description: (§1) The cytotoxicity studies were carried out, on the one hand on the Vero line (normal monkey kidney cell), Table I, and on the other hand on the KB line (human carcinoma of the nasopharynx), Table II, according to the following method:
(§2) The products were introduced at the time of culturing, which is maintained for 72 hours. The products are tested at 100, 80, 40, 20 and 10 μm [sic]. […] The percentage values for inhibition of cell proliferation were measured by a colorimetric method with crystal violet, relative to control cultures containing DMSO (≤1%).

KB cells [1] = test: Cytotoxicity / cytostasis test on the KB line, % inhibition of proliferation (crystal violet); format: cell-based, human; details: for % inhibition of proliferation: KB cells, 72 hours
Description: as §1, §2

KB cells [2] = test: as above; format: cell-based, human; details: 5 μm [sic], 72 hours
tubulin = details: natural substances binding to tubulin receptor sites; cited from earlier work

SMILES: CCOC(=O)c1[nH]cc(C)c1-c1ccccc1 [(1), Ethyl 4-methyl-3-phenyl-2-pyrrolecarboxylate]
- % inhibition of proliferation (Vero cells; 10 μm [sic]): 0%
- % inhibition of proliferation (Vero cells; 20 μm [sic]): 0%
- % inhibition of proliferation (Vero cells; 40 μm [sic]): 20%
- % inhibition of proliferation (Vero cells; 80 μm [sic]): 46%
- % inhibition of proliferation (Vero cells; 100 μm [sic]): 63%
- % inhibition of proliferation (KB cells [1]; 10 μm [sic]): 0%
- % inhibition of proliferation (KB cells [1]; 20 μm [sic]): 0%
- % inhibition of proliferation (KB cells [1]; 40 μm [sic]): 0%
- % inhibition of proliferation (KB cells [1]; 80 μm [sic]): 35%
- % inhibition of proliferation (KB cells [1]; 100 μm [sic]): 43%

SMILES: COC(=O)c1[nH]cc(C)c1-c1cccc([N+](=O)[O-])c1 [(2), Methyl 4-methyl-3-(3'-nitrophenyl)-2-pyrrolecarboxylate]
- % inhibition of proliferation (Vero cells; 10 μm [sic]): 0%
- % inhibition of proliferation (Vero cells; 20 μm [sic]): 3%
- % inhibition of proliferation (Vero cells; 40 μm [sic]): 38%
- % inhibition of proliferation (Vero cells; 80 μm [sic]): 75%
- % inhibition of proliferation (Vero cells; 100 μm [sic]): 77%
- % inhibition of proliferation (KB cells [1]; 10 μm [sic]): 0%
- % inhibition of proliferation (KB cells [1]; 20 μm [sic]): 0%
- % inhibition of proliferation (KB cells [1]; 40 μm [sic]): 10%
- % inhibition of proliferation (KB cells [1]; 80 μm [sic]): 50%
- % inhibition of proliferation (KB cells [1]; 100 μm [sic]): 72%

SMILES: Cc1c[nH]c2c(=O)[nH]c3ccccc3c12 [(4)]
- % inhibition of proliferation (Vero cells; 10 μm [sic]): 0%
- % inhibition of proliferation (Vero cells; 20 μm [sic]): 0%
- % inhibition of proliferation (Vero cells; 40 μm [sic]): 45%
- % inhibition of proliferation (Vero cells; 80 μm [sic]): 49-70%
- % inhibition of proliferation (Vero cells; 100 μm [sic]): 69-84%
- % inhibition of proliferation (KB cells [1]; 10 μm [sic]): 0%
- % inhibition of proliferation (KB cells [1]; 20 μm [sic]): 72%
- % inhibition of proliferation (KB cells [1]; 40 μm [sic]): 100%
- % inhibition of proliferation (KB cells [1]; 80 μm [sic]): 60%
- % inhibition of proliferation (KB cells [1]; 100 μm [sic]): 68%

SMILES: CCOC(=O)c1[nH]cc(C)c1-c1ccccc1NC(=O)CNC(=O)OCc1ccccc1 [(6), Ethyl 3-[2'-(N-benzyloxycarbonylglycylamido)phenyl]-4-methyl-2-pyrrolecarboxylat]
- % inhibition of proliferation (Vero cells; 10 μm [sic]): 0%
- % inhibition of proliferation (Vero cells; 20 μm [sic]): 0%
- % inhibition of proliferation (Vero cells; 40 μm [sic]): 4%
- % inhibition of proliferation (Vero cells; 80 μm [sic]): 48%
- % inhibition of proliferation (Vero cells; 100 μm [sic]): 78%
- % inhibition of proliferation (KB cells [1]; 10 μm [sic]): 0%
- % inhibition of proliferation (KB cells [1]; 20 μm [sic]): 22%
- % inhibition of proliferation (KB cells [1]; 40 μm [sic]): 31%
- % inhibition of proliferation (KB cells [1]; 80 μm [sic]): 52%
- % inhibition of proliferation (KB cells [1]; 100 μm [sic]): 68%

SMILES: Cc1cn(C)c(C(=O)N(C(=O)NC2CCCCC2)C2CCCCC2)c1-c1ccccc1[N+](=O)[O-] [(10), 1,4-Dimethyl-3-(2'-nitrophenyl)pyrrole-2(N,N'-cyclohexylureidocarboxamide)]
- % inhibition of proliferation (Vero cells; 10 μm [sic]): 0%
- % inhibition of proliferation (Vero cells; 20 μm [sic]): 0%
- % inhibition of proliferation (Vero cells; 40 μm [sic]): 25%
- % inhibition of proliferation (Vero cells; 80 μm [sic]): 100%
- % inhibition of proliferation (Vero cells; 100 μm [sic]): 100%
- % inhibition of proliferation (KB cells [1]; 10 μm [sic]): 0%
- % inhibition of proliferation (KB cells [1]; 20 μm [sic]): 0%
- % inhibition of proliferation (KB cells [1]; 40 μm [sic]): 0%
- % inhibition of proliferation (KB cells [1]; 80 μm [sic]): 27%
- % inhibition of proliferation (KB cells [1]; 100 μm [sic]): 45%

SMILES: CCCCc1c(C)c(-c2ccccc2N(C)C(=O)OCc2ccccc2)c(CCC2OCCO2)n1C [(22), 5-Butyl-1,4-dimethyl-2-(1,4-dioxa-2-ethylcarbaldehyde)-3-[2'-(N-benzyloxycarbonyl-N-methylamino)phenyl]pyrrole]
- % inhibition of proliferation (Vero cells; 10 μm [sic]): 0%
- % inhibition of proliferation (Vero cells; 20 μm [sic]): 0%
- % inhibition of proliferation (Vero cells; 40 μm [sic]): 0%
- % inhibition of proliferation (Vero cells; 80 μm [sic]): 54%
- % inhibition of proliferation (Vero cells; 100 μm [sic]): 54%
- % inhibition of proliferation (KB cells [1]; 10 μm [sic]): 0%
- % inhibition of proliferation (KB cells [1]; 20 μm [sic]): 0%
- % inhibition of proliferation (KB cells [1]; 40 μm [sic]): 0%
- % inhibition of proliferation (KB cells [1]; 80 μm [sic]): 44%
- % inhibition of proliferation (KB cells [1]; 100 μm [sic]): 59%

SMILES: CCCCc1c(C)c(-c2ccccc2NC)c(CCC2OCCO2)n1C [(23), 5-Butyl-1,4-dimethyl-2-(1,4-dioxa-2-ethylcarbaldehyde)-3-[2'-(N-methylamino)phenyl]pyrrole]
- % inhibition of proliferation (Vero cells; 10 μm [sic]): 0%
- % inhibition of proliferation (Vero cells; 20 μm [sic]): 0%
- % inhibition of proliferation (Vero cells; 40 μm [sic]): 25%
- % inhibition of proliferation (Vero cells; 80 μm [sic]): 69%
- % inhibition of proliferation (Vero cells; 100 μm [sic]): 80%
- % inhibition of proliferation (KB cells [1]; 10 μm [sic]): 48%
- % inhibition of proliferation (KB cells [1]; 20 μm [sic]): 66%
- % inhibition of proliferation (KB cells [1]; 40 μm [sic]): 81%
- % inhibition of proliferation (KB cells [1]; 80 μm [sic]): 94%
- % inhibition of proliferation (KB cells [1]; 100 μm [sic]): 100%
- selectivity with respect to the KB line (KB cells [1]; at low concentration, KB versus Vero): some degree of selectivity at low concentration with respect to the KB line
- % inhibition of proliferation (KB cells [2]): 4%

SMILES: COc1cc([C@@H]2c3cc4c(cc3[C@H](O)[C@H]3COC(=O)[C@H]23)OCO4)cc(OC)c1OC [podophyllotoxin]
- inhibition of tubulin polymerization (tubulin): inhibit its polymerization

SMILES: CC[C@]1(O)C[C@@H]2CN(CCc3c([nH]c4ccccc34)[C@@](C(=O)OC)(c3cc4c(cc3OC)N(C)[C@H]3[C@@](O)(C(=O)OC)[C@H](OC(C)=O)[C@]5(CC)C=CCN6CC[C@]43[C@@H]65)C2)C1 [vinblastine]
- inhibition of tubulin polymerization (tubulin): inhibit its polymerization
- spiralization of tubulin (tubulin): can cause its spiralization

SMILES: CC[C@]1(O)C[C@H]2CN(CCc3c([nH]c4ccccc34)[C@@](C(=O)OC)(c3cc4c(cc3OC)N(C=O)[C@H]3[C@@](O)(C(=O)OC)[C@H](OC(C)=O)[C@]5(CC)C=CCN6CC[C@]43[C@@H]65)C2)C1 [vincristine]
- inhibition of tubulin polymerization (tubulin): inhibit its polymerization
